The target of experiment [1] is T1, human sputum leucocyte elastase (Homo sapiens, UniProt P08246).
T1 sequence (P08246 30-247 limits assumed): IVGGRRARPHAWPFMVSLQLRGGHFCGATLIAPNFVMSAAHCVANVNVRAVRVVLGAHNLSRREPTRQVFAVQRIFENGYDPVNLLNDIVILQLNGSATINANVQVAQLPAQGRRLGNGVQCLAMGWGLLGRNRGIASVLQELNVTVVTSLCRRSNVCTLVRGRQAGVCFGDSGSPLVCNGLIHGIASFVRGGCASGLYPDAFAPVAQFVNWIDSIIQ
The experiment can be described thus: Inhibitory activity for human leucocyte elastase in vitro. Type of experiment: biochemical. Also on record: It is a glycoprotein of 25 to 30 kDa formed from 218 amino acids; purchased Elastin Products Co; host or cells: human sputum (natural enzyme). The settings on record: methoxysuccinyl-Ala-Ala-Pro-Val paranitroanilide substrate, 15 min incubation, 37° C., pH 7.8. On the procedure: This activity is measured by following the kinetics of hydrolysis of the substrate which leads to the release of paranitroaniline which absorbs at a wavelength of 410 nm.
Enzyme: Human sputum leucocyte elastase (Elastin Products Co.) solubilized at 1000 uI/ml of distilled water, and frozen in aliquots of 50 μl at -20° C.
Substrate: methoxysuccinyl-L-alanyl-L-alanyl-propyl-valine paranitroanilide (Sigma chimie).
Buffer: Tris 0.1M; NaCl 0.5M; pH=7.8.
10 μl of the product to be tested or of the solvent (concentrated×100)
10 μl of human sputum leucocyte elastase diluted to 1/10th
Stirring and incubation for 15 min at 37° C.
The reaction is started by addition of 10 μl of substrate.
The cell is introduced into the spectro- photometer, and the optical density is recorded as a function of time at 410 nm at 37° C.
The initial rate is measured for each product concentration (or solvent control) studied.
Percentages of inhibition with respect to the solvent control are calculated:
Percentage of inhibition=100×(control rate-rate of the product
The inhibitory concentrations 50 (IC50) are calculated from the percentages of inhibition by simple linear regression.

Experiment [2] deals with T1, human sputum leucocyte elastase. The experiment can be described thus: In vivo inhibitory activity: model of acute hemorrhagic edema in hamsters. Also on record: It is a glycoprotein of 25 to 30 kDa formed from 218 amino acids; from tissue; host or cells: human sputum (purified preparation). To be noted: hamster, 10 μg intratracheally 3 hours before elastase (50 units); hemoglobin in broncho-alveolar washing 3 hours after elastase. As to the method:
In vivo inhibitory activity: model of acute hemorrhagic edema in hamsters
Tracheal instillation in hamsters of a purified preparation of human sputum leucocyte elastase leads to acute hemorrhaging which can be quantified by measuring the concentration of hemoglobin in the broncho-alveolar washing 3 hours after the elastase instillation.
The study is carried out on male hamsters weighing […] (Syrian Golden, n=10 per batch). The animals are anesthetized with pentobarbital at a dose of 40 mg/kg intraperitoneally.
The hamsters are anesthetized and the trachea is exposed surgically. The products to be tested are administered with the aid of a needle directly into the trachea in a volume of 0.1 ml at a dose of 10 μg. Human sputum leucocyte elastase is administered, 3 hours after administration of the product, intratracheally at a dose of 50 units per animal at a volume of 0.2 ml.
The animals are sacrificed with the aid of a lethal dose of pentobarbital 3 hours after instillation of elastase and a broncho-alveolar washing with physiological serum is carried out. The degree of hemorrhaging is quantified by a colorimetric method which makes it possible to quantitatively determine the hemoglobin concentration (Boehringer hemoglobin test combination).
The results are expressed in percentage of inhibition of hemorrhaging.

Data on 14 compounds can be found in US5565429A, “Peptides derived from trifluoromethylketones” (Adir et Compagnie, priority 1992, dated 1996).

Regarding “4-{[3-(3-Azabicyclo[3.3.0]octane)ureido]sulpfonyl}benzoyl-(S)-Val-(S)-Abo-(R,S)-Val-CF3 [Example 2]”, the IC50 (in general, the midpoint of a concentration-inhibition curve) in experiment [1] was 25 nM. Besides, in experiment [2], the “Inhibition (%) of hemorrhaging” value worked out at 57%.

With `CC(C)C(NC(=O)[C@@H]1C2CCC(CC2)N1C(=O)[C@@H](NC(=O)c1ccc(C(=O)NS(=O)(=O)c2ccc(Cl)cc2)cc1)C(C)C)C(=O)C(F)(F)F` (single isomer, unassigned) [Example 4], it took 15 nM to reach half-maximal inhibition in experiment [1] (IC50). Besides, the “Inhibition (%) of hemorrhaging” value in experiment [2] amounted to 70%.

The compound `CC(=O)N[C@@H](CSC(C)(C)C)C(=O)NS(=O)(=O)c1ccc(C(=O)N[C@H](C(=O)N2C3CCC(CC3)[C@H]2C(=O)NC(C(=O)C(F)(F)F)C(C)C)C(C)C)cc1` (stereo partly drawn) [Example 18, 4-[S-tert-Butyl-N-acetyl-(S)-cysteinylaminosulfonyl]benzoyl-(S)-Val-(S)-Abo-(R,S)-Val-CF3] had an IC50 in experiment [1] of 19 nM. Moreover, the “Inhibition (%) of hemorrhaging” value in experiment [2] came out at 38%.

As for `CC(C)C(NC(=O)[C@@H]1[C@@H]2CC[C@@H](C2)N1C(=O)[C@@H](NC(=O)c1ccc(C(=O)NS(=O)(=O)c2ccc(Cl)cc2)cc1)C(C)C)C(=O)C(F)(F)F` (stereo partly drawn) [Example 22, 4-(4-Chlorophenylsulfonylaminocarbonyl)benzoyl-(S)-Val-(1S,3S,4R)-Abh-(R,S)-Val-CF3], in experiment [1], the IC50 was determined as 19 nM. In addition, the “Inhibition (%) of hemorrhaging” value in experiment [2] is listed as 65%.

As to `CC(C)C(NC(=O)[C@@H]1[C@@H]2CC[C@@H](C2)N1C(=O)[C@@H](NC(=O)c1ccc(S(=O)(=O)NC(=O)c2ccccc2C(=O)N2CCSC2)cc1)C(C)C)C(=O)C(F)(F)F` (stereo partly drawn) [Example 23, 4-[2-[(1,3-Thiazolidin-3-yl)carbonyl]benzoylaminosulfonyl]benzoyl-(S)-Val-(lS,3S,4R)-Abh-(R,S)-Val-CF3], the IC50 in experiment [1] worked out at 30 nM. For the same compound, the “Inhibition (%) of hemorrhaging” value in experiment [2] is 61%.

Take `CC(C)C(NC(=O)[C@@H]1C2CCC(CC2)N1C(=O)[C@@H](NC(=O)c1ccc(S(=O)(=O)NC(=O)C(C2CC2)C2CC2)cc1)C(C)C)C(=O)C(F)(F)F` (stereo partly drawn) [Example 24, 4-[(Dicyclopropylmethyl)carbonylaminosulfonyl]benzoyl-(S)-Val-(S)-Abo-(R,S)-Val-CF3]: 25 nM corresponded to half-maximal inhibition in experiment [1] (IC50). Besides, in experiment [2], the “Inhibition (%) of hemorrhaging” value is 46%.

The compound `CC(C)C(NC(=O)c1ccc(S(=O)(=O)NC(=O)Nc2ccc(Cl)cc2)cc1)C(=O)N1C2CCC(CC2)C1C(=O)NC(C(=O)C(F)(F)F)C(C)C` [Example 25, 4-(4-Chlorophenylureidosulfonyl)benzoyl-(S)-Val-(S)-Abo-(R,S)-Val-CF3] yielded an IC50 in experiment [1] of 34 nM. In addition, the “Inhibition (%) of hemorrhaging” value in experiment [2] stood at 63%.

`CC(C)C(NC(=O)[C@@H]1C[C@@H]2CCCC[C@@H]2N1C(=O)[C@@H](NC(=O)c1ccc(S(=O)(=O)NC(=O)Nc2ccc(Cl)cc2)cc1)C(C)C)C(=O)C(F)(F)F` (stereo partly drawn) [Example 26, 4-(4-Chlorophenylureidosulfonyl)benzoyl-(S)-Val-(2S,3aS,7aS)-Phi-(R,S)-Val-CF3] registered an IC50 in experiment [1] of 31 nM. In addition, in experiment [2], the “Inhibition (%) of hemorrhaging” value is listed as 64%.

Regarding `CC(C)C(NC(=O)[C@@H]1C[C@@H]2CCCC[C@@H]2N1C(=O)[C@@H](NC(=O)c1ccc(S(=O)(=O)NC(=O)C(C2CC2)C2CC2)cc1)C(C)C)C(=O)C(F)(F)F` (stereo partly drawn) [Example 27, 4-[(Dicyclopropylmethyl)carbonylaminosulfonyl]benzoyl-(S)-Val-(2S,3aS,7aS)-Phi-(R,S)-Val-CF3], 29 nM corresponded to half-maximal inhibition in experiment [1] (IC50). Further, in experiment [2], the “Inhibition (%) of hemorrhaging” value stood at 38%.

For `CC(C)C(NC(=O)c1ccc(S(=O)(=O)NC(=O)C23CC4CC(CC(C4)C2)C3)cc1)C(=O)N1C2CCC(CC2)C1C(=O)NC(C(=O)C(F)(F)F)C(C)C` [Example 28, 4-[(Adamant-1-yl)carbonylaminosulfonyl]benzoyl-(S)-Val-(S)-Abo-(R,S)-Val-CF3], the midpoint of inhibition in experiment [1], the IC50, lay at 47 nM. For the same compound, in experiment [2], the “Inhibition (%) of hemorrhaging” value turned out to be 57%.

Take `CC(C)C(NC(=O)[C@@H]1C[C@@H]2CCCC[C@@H]2N1C(=O)[C@@H](NC(=O)c1ccc(S(=O)(=O)NC(=O)Cc2cc(C(C)(C)C)c(O)c(C(C)(C)C)c2)cc1)C(C)C)C(=O)C(F)(F)F` (stereo partly drawn) [Example 29, 4-[(3,5-Di-tert-butyl-4-hydroxybenzyl)carbonylaminosulfonyl]benzoyl-(S)-Val-(2S,3aS,7aS)-Phi-(R,S)-Val-CF3]: in experiment [1], 38 nM corresponded to half-maximal inhibition (IC50). The “Inhibition (%) of hemorrhaging” value in experiment [2] is reported as 63%.

In turn, `CC(C)C(NC(=O)[C@@H]1C[C@@H]2CCCC[C@@H]2N1C(=O)[C@@H](NC(=O)c1ccc(S(=O)(=O)NC(=O)c2ccc(CCN3CCC4(CC3)CNC(=O)O4)cc2)cc1)C(C)C)C(=O)C(F)(F)F` (stereo partly drawn) [Example 32, 4-{4-[2-(1-Oxa-2-oxo-3,8-diazaspiro[4.5]dec-8-yl)ethyl]benzoylaminosulfonyl}benzoyl-(S)-Val-(2S,3aS,7aS)-Phi-(R,S)-Val-CF3] showed an IC50 in experiment [1] of 42 nM. The “Inhibition (%) of hemorrhaging” value in experiment [2] stood at 42%.

For the compound `CCOCC(O)COc1cc(C(=O)NS(=O)(=O)c2ccc(C(=O)N[C@H](C(=O)N3[C@H](C(=O)NC(C(=O)C(F)(F)F)C(C)C)C[C@@H]4CCCC[C@@H]43)C(C)C)cc2)ccc1OC` (stereo partly drawn) [Example 35, 4-{[4-Methoxy-3-(3-ethoxy-2-hydroxypropoxy)-benzoyl]aminosulfonyl}benzoyl-(S)-Val-(2S,3aS,7aS)-Phi-(R,S)-Val-CF3], inhibition in experiment [1] was half-maximal at 37 nM (IC50). Besides, in experiment [2], the “Inhibition (%) of hemorrhaging” value is reported as 47%.

In turn, `CC(C)C(NC(=O)[C@@H]1C[C@@H]2CCCC[C@@H]2N1C(=O)[C@H](CCCCNC(=O)Cc1cc(C(C)(C)C)c(O)c(C(C)(C)C)c1)NC(=O)c1ccc(C(=O)NS(=O)(=O)c2ccc(Cl)cc2)cc1)C(=O)C(F)(F)F` (stereo partly drawn) [Example 41, 4-(4-Chlorophenylsulfonylaminocarbonyl)benzoyl-[N-(3,5-di-tert-butyl-4-hydroxyphenyl)acetyl]-(S)-Lys-(2S,3aS,7aS)-Phi-(R,S)-Val-CF3] returned an IC50 in experiment [1] of 70 nM. Besides, in experiment [2], the “Inhibition (%) of hemorrhaging” value came to 41%.
